The values that follow come from PubChem BioAssay AID1033 (Sanford-Burnham Center for Chemical Genomics, 2008).

Calls of active or inactive are those of the source. No rule for the calls is given here.

Broadly, the Kd is a measure of binding affinity in units of concentration.

In the assay the target is Chaperone protein DnaK (Escherichia coli (strain K12)) (UniProt P0A6Y8). Nature of the assay: E. coli DnaK SBD ligand binding – biophysical, NMR, chaperone (AID 1033). Particulars: Purified DnaK SBD.
Chaperone protein DnaK (Escherichia coli (strain K12)), sequence (P0A6Y8 whole entry, looked up): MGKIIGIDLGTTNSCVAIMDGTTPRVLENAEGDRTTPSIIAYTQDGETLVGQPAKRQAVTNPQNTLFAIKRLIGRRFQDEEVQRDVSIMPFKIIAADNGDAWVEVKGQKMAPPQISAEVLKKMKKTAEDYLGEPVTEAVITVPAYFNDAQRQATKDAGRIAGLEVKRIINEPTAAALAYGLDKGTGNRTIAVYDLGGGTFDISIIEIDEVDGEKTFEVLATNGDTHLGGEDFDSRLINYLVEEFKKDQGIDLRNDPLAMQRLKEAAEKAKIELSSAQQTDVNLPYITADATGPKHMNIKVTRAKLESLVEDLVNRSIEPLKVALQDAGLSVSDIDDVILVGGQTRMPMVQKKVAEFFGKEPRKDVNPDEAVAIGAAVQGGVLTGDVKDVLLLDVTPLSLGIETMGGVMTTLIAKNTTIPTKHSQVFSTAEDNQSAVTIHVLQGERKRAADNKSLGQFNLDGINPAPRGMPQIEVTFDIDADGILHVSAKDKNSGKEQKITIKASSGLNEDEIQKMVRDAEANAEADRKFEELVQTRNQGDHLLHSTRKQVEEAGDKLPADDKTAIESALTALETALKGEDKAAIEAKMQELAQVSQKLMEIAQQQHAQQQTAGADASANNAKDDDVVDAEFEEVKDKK
Turning to `O=C(O)c1csc(-c2cccs2)n1`, the Kd is > 4 mM (inactive).
For `COc1cc(OC)c(OC)cc1C=O`, the Kd is > 4 mM (inactive).
Regarding `Cn1c(=O)n(C)c2nc([N+](=O)[O-])c(Cl)cc21`, the Kd is > 4 mM (inactive).
`C[C@H]1[C@H](C)CC[C@]2(CO)CC[C@]3(C)C(=CCC4[C@@]5(C)CC[C@H](O)C(C)(C)C5CC[C@]43C)[C@H]12` (stereo not given in full): the Kd is > 4 mM (inactive).
`Nc1cccc(CC(=S)N2CCOCC2)c1`: the Kd is > 4 mM (inactive).
`O=C(CSC1=NCCS1)N1CCc2ccccc21`: the Kd was > 4 mM (inactive).
In the case of `c1ccc(SCc2nc(-c3cccnc3)no2)cc1`, the Kd was > 4 mM (inactive).
For the compound `COc1ccc2c(c1OC)C(=O)O[C@@H]2[C@@H]1c2cc3c(cc2CCN1C)OCO3`, the Kd was > 4 mM (inactive).
For the compound `NCc1ccc(CN2CCOCC2)cc1`, the Kd was > 4 mM (inactive).
The same measure for `CN(C)/C=N/S(=O)(=O)c1ccccc1`: > 4 mM (inactive); for `CC(=O)Nc1ccn(Cc2c(F)cccc2Cl)n1`: > 4 mM (inactive); for `Cc1noc(C)c1C(=O)Nc1cccnc1`: > 4 mM (inactive).
In the case of `COCc1cc(=O)oc2cc(N)ccc12` it was > 4 mM (inactive); in that of `CC(C)(C)c1cc(NC(=O)c2cccnc2)no1`, > 4 mM (inactive); in that of `CN1CCN(CC(=O)N2CCc3ccccc32)CC1`, > 4 mM (inactive).
On to `CC(=O)O[C@@H]1CC2C(C)(CC[C@H](O)C2(C)C)C2CC[C@]3(C)C(=CC(=O)O[C@H]3c3ccoc3)C21C` (stereo not given in full), for which the Kd was > 4 mM (inactive).
For `COc1ccccc1NC(=O)/C=N/O`, the Kd was > 4 mM (inactive).
With `Cc1nnsc1C(=O)O`, the Kd is > 4 mM (inactive).
With `Nc1ccc(C(=O)NCC2CCCO2)cc1` (stereo not given), the Kd was > 4 mM (inactive).
Take `NS(=O)(=O)c1ccc2c(c1)OCCO2`: the Kd is > 4 mM (inactive).
For `Cn1c(CO)nc2ccccc21`, the Kd is > 4 mM (inactive).
The same measure for `O=c1cc(-c2ccccc2)oc2cc(O)c(O)c(O)c12`: > 4 mM (inactive); for `CC(C)CC(=O)NC1CCSC1=O` (stereo not given): > 4 mM (inactive).
In the case of `COc1ccc(Cl)c(S(=O)(=O)N2CCCC2)c1`, the Kd was > 4 mM (inactive).
For `O=S1(=O)CCC(NCc2ccccc2)C1` (stereo not given), the Kd is > 4 mM (inactive).
With `COc1ccccc1-c1noc(-c2ccco2)n1`, the Kd is > 4 mM (inactive).
Consider `CC(=O)Oc1cc2c(C(C)=O)coc2c2ccccc12`, for which the Kd is > 4 mM (inactive).
As to `NC(=O)CN1CCC(c2nc3ccccc3[nH]2)CC1`, the Kd is > 4 mM (inactive).
In the case of `Cc1nc2ccccc2c(=O)n1-c1cccc(O)c1`, the Kd was > 4 mM (inactive).
For the compound `COc1ccc(/C=C/c2cc(O)cc(O)c2)cc1`, the Kd is > 4 mM (inactive).
Take `Nc1nncn1C(=O)c1c(Cl)cccc1Cl`: the Kd is > 4 mM (inactive).
The same measure for `C[C@H]1[C@H]2CCC3C4CC=C5C[C@@H](N(C)C)CC[C@]5(C)C4CC[C@@]32CN1C` (stereo not given in full): > 4 mM (inactive); for `CC(=O)c1c(C)nn(CC(=O)O)c1C`: > 4 mM (inactive).
The same measure for `OCCNc1ccccn1`: > 4 mM (inactive); for `COC(=O)C1[C@H]2C[C@H]3c4[nH]c5ccccc5c4CCN3C[C@@H]2CC[C@@H]1O` (stereo not given in full): > 4 mM (inactive).
Take `Cc1ccc(CN2CCN(C(=O)C3CCC3)CC2)cc1`: the Kd was > 4 mM (inactive).
As to `O=C(O)C1(S(=O)(=O)c2ccccc2)CC1`, the Kd was > 4 mM (inactive).
As to `Cc1cc(C)n2nc(-c3cccnc3)nc2n1`, the Kd was > 4 mM (inactive).
With `Cc1nnc(SCC(=O)NCc2ccccc2)[nH]c1=O`, the Kd is > 4 mM (inactive).
Take `O=C(c1cnsn1)N1CCN(c2ccccn2)CC1`: the Kd is > 4 mM (inactive).
For the compound `CN(C)C(=O)c1ccc(-c2n[nH]c(=O)c3ccccc23)cc1`, the Kd is > 4 mM (inactive).
For the compound `CNC(=O)c1ccccc1N`, the Kd was > 4 mM (inactive).
In the case of `Cc1cc(C)n(CCC(=O)O)n1` it was > 4 mM (inactive); in that of `COc1ccccc1C(=O)Nc1ccccn1`, > 4 mM (inactive).
Turning to `CCn1c(-c2c[nH]c3ccccc23)n[nH]c1=S`, the Kd was > 4 mM (inactive).
With `CC1=CC(=O)C2C(C)(C)CCC[C@]2(C)[C@@]1(O)CCc1ccoc1` (stereo not given in full), the Kd is > 4 mM (inactive).
On to `CC(=O)Nc1sccc1C(N)=O`, for which the Kd was > 4 mM (inactive).
In the case of `O=C(Nc1ccc(-c2nnco2)cc1)c1ccccc1`, the Kd was > 4 mM (inactive).
In the case of `c1ccc(-c2n[nH]c(-c3ccccn3)n2)nc1` it was > 4 mM (inactive).
Consider `CC1CCN(S(=O)(=O)N(C)C)CC1`, for which the Kd is > 4 mM (inactive).
On to `CC(=O)OC1CCC2(C)C3CC(=O)C4(C)C(CC5OC6(CCC(C)CO6)[C@@H](C)C54)C3CC[C@H]2C1` (stereo not given in full), for which the Kd is > 4 mM (inactive).
The same measure for `COc1cc(C(=O)NCC2CCCO2)cc(OC)c1OC` (stereo not given): > 4 mM (inactive).
Regarding `CC(=O)OCC(OC(C)=O)C(OC(C)=O)C(OC(C)=O)C(OC(C)=O)C(COC(C)=O)OC(C)=O` (stereo not given), the Kd is > 4 mM (inactive).
In the case of `Cc1ccc(SCc2nc(-c3cccnc3)no2)cc1` it was > 4 mM (inactive); in that of `C1CCN2C[C@@H]3C[C@H](CN4CCCC[C@@H]34)[C@H]2C1`, > 4 mM (inactive); in that of `NC(=O)c1ccccc1N=Cc1ccco1`, > 4 mM (inactive).
With `COC(=O)c1ccc2nsnc2c1`, the Kd was > 4 mM (inactive).
For `NCC(=O)c1ccccc1`, the Kd was > 4 mM (inactive).
Regarding `COc1cc(O)ccc1C(C)=O`, the Kd was > 4 mM (inactive).
In the case of `O=C(COc1ccccc1)N1CCc2ccccc2C1`, the Kd is > 4 mM (inactive).
The same measure for `CC1CCc2cc(F)ccc2N1C(=O)c1ccc(=O)[nH]n1` (stereo not given): > 4 mM (inactive); for `O=C1CN2C(=N1)N(Cc1ccccc1)c1ccccc12`: > 4 mM (inactive); for `O=C(O)c1ccc(N2CCOCC2)nc1`: > 4 mM (inactive).
As for `CCc1ccccc1NC(=O)c1ccoc1C`, the Kd is > 4 mM (inactive).
Consider `Nc1ncnc(NCCO)c1[N+](=O)[O-]`, for which the Kd is > 4 mM (inactive).
Consider `NCC1CN(Cc2ccccc2)CCO1` (stereo not given), for which the Kd was > 4 mM (inactive).
Turning to `O=C(C1CCNCC1)N1CCCCCC1`, the Kd was > 4 mM (inactive).
In the case of `Nc1oncc1-c1ccccn1` it was > 4 mM (inactive); in that of `O=C1NC(=S)N/C1=C\c1ccccc1F`, > 4 mM (inactive).
Take `Cn1ccnc1C(O)c1ccccc1` (stereo not given): the Kd is > 4 mM (inactive).
As to `COc1cccc(NC(=O)c2cnn(C)c2Cl)c1`, the Kd was > 4 mM (inactive).
In the case of `CC1(C)Cc2cccc(C(=O)O)c2O1`, the Kd is > 4 mM (inactive).
Regarding `O=C1O[C@H](C(O)CO)C(O)=C1O` (stereo not given in full), the Kd is > 4 mM (inactive).
`O=C(O)c1ccc(NC(=O)c2cccs2)cc1`: the Kd is > 4 mM (inactive).
In the case of `NC(=O)C1(c2ccccc2)CCOCC1`, the Kd was > 4 mM (inactive).
In the case of `O=C(NC1CSCC1O)c1ccccc1` (stereo not given), the Kd is > 4 mM (inactive).
Regarding `COC(=O)c1cncn1C`, the Kd is > 4 mM (inactive).
With `CN1C(=O)c2ccc(N3CCCC3)cc2C1=O`, the Kd was > 4 mM (inactive).
The same measure for `CCOc1nc(C)ccc1-c1noc(-c2ccco2)n1`: > 4 mM (inactive); for `OCc1ccc2nonc2c1`: > 4 mM (inactive).
Turning to `O=C(CC1NCCNC1=O)Nc1ccccc1` (stereo not given), the Kd was > 4 mM (inactive).
For the compound `O=C(NC1=NCCS1)c1ccc([N+](=O)[O-])cc1Cl`, the Kd was > 4 mM (inactive).
For the compound `Cc1ccccc1-n1c(N)cc(=O)[nH]c1=S`, the Kd was > 4 mM (inactive).
Consider `O=C(O)c1cccc(O)c1O`, for which the Kd was > 4 mM (inactive).
As to `NC(N)=Nc1nc2ccccc2o1`, the Kd was > 4 mM (inactive).
Turning to `CC(C)c1ccccc1NC(=O)c1cnccn1`, the Kd was > 4 mM (inactive).
Consider `O=C(NCc1cccc(Cl)c1)c1cccnc1`, for which the Kd is > 4 mM (inactive).
In the case of `C/C(=C\CO)CC[C@H](C)CCC[C@H](C)CCCC(C)C` it was > 4 mM (inactive); in that of `Cn1c(CNc2ccccc2)cc(=O)n(C)c1=O`, > 4 mM (inactive); in that of `CCOc1cc(S(=O)(=O)n2nc(C)cc2C)ccc1F`, > 4 mM (inactive).
As for `COc1ccc(-c2cc(=O)c3c(OC)c(OC)c(OC)c(OC)c3o2)cc1`, the Kd was > 4 mM (inactive).
Turning to `O=C(Cc1cccs1)Nc1nncs1`, the Kd is > 4 mM (inactive).
`C=CCCCCCCCCCCCC(O)CC(O)CO` (stereo not given) (tested in a mixture with another compound): the Kd was > 4 mM (inactive).
In the case of `NC(=O)c1ccc(C(N)=O)cc1`, the Kd is > 4 mM (inactive).
In the case of `CN(C)c1ccc(CNn2cnnc2)cc1` it was > 4 mM (inactive); in that of `CC(=O)O[C@H]1CC[C@@]2(C)C(CC[C@]3(C)C2CC=C2C4CC(C)(C)CC[C@]4(C)CC[C@]23C)C1(C)C` (stereo not given in full), > 4 mM (inactive).
Regarding `CC(=O)Nc1ccc(S(=O)(=O)Nc2cc(C)on2)cc1`, the Kd is > 4 mM (inactive).
Turning to `COCCn1c(SC)nc2c1c(=O)[nH]c(=O)n2C`, the Kd is > 4 mM (inactive).
Turning to `NC(=O)c1c(Cl)nsc1-c1ccccc1Cl`, the Kd was > 4 mM (inactive).
As to `CCOc1cc(S(=O)(=O)N2CCOCC2)ccc1F`, the Kd was > 4 mM (inactive).
Consider `O=c1nc(C(F)(F)F)nc2ccccn12`, for which the Kd was > 4 mM (inactive).
In the case of `O=C1C2C3C=CC(C3)C2C(=O)N1CCCO` (stereo not given) it was > 4 mM (inactive); in that of `Cc1ccc2c(c1)=C(c1sc(N)nc1O)C(=O)N=2`, > 4 mM (inactive); in that of `O=C(Nc1ccccc1)c1cnc2n(c1=O)CCS2`, > 4 mM (inactive).
For the compound `CN(C)c1nc(N2CCOCC2)nc(N2CCOCC2)n1`, the Kd was > 4 mM (inactive).
